# Test results published in patent US20240287080A1 (IDEAYA Biosciences Inc., priority 2021, published 2024).
# Biological target: T1, Pol theta (1-899) (Homo sapiens, UniProt O75417)
# T1 construct: Pol theta (1-899) (5 nM) in assay buffer
# Experiment: Pol theta ATPase activity, NADH oxidation-coupled enzymatic assay (ATPase NADH coupling: Standard Screening: hPolQ)
# Format: biochemical
# Settings: Pol theta (1-899) 5 nM, NADH oxidation-coupled ATPase assay; compounds of Table 3
# Experimental: The ability of the compounds of Formula (I) or Table 1 to inhibit ATPase activity of Pol theta (1-899) was determined using the assay described below. Pol Theta ATPase activity was determined by measuring the rate of ATP turn over in a NADH oxidation-coupled enzymatic assay. 10-point dilution series of compounds were used in a 384 well format for the inhibition assays. Pol theta (1-899) (5 nM) in assay buffer (20 mM Tris HCl (pH 7.80), 80 mM KCl, 10 mM MgCl2, 1 mM DTT, 0.01% BSA, 0.01% Tween, 5% glycerol) was transferred to the test wells (20 μL), except the low control wells (20 μL of assay buffer was added to the low control wells). The plate was then incubated at room temperature for 15 min. An equal volume (20 μL) of 100 μM ATP, 300 nM […] (single-stranded DNA (ssDNA) containing 50 thymine bases), 300 μM NADH, 6 mM PEP, 10 U/mL lactate dehydrogenase and 20 U/mL pyruvate kinase in assay buffer was added to all the test wells. The plate was then centrifuged at 1000 rpm for 1 min. The reaction was monitored for 60 min by measuring absorbance (λ=340 nm) in a Tecan Spark multimode plate reader every minute. The high control (DMSO with enzyme) with low absorbance intensity represents no inhibition of ATPase reaction while the low control (DMSO with buffer) with high absorbance intensity represents full inhibition of ATPase activity. Slope of the reaction progress curves were used to calculate the rate of ATP hydrolysis. The rates were used to determine the percent inhibition using a four-parameter inhibition model to generate IC50, Hill slope and max inhibition.
# T1 sequence (O75417 1-899): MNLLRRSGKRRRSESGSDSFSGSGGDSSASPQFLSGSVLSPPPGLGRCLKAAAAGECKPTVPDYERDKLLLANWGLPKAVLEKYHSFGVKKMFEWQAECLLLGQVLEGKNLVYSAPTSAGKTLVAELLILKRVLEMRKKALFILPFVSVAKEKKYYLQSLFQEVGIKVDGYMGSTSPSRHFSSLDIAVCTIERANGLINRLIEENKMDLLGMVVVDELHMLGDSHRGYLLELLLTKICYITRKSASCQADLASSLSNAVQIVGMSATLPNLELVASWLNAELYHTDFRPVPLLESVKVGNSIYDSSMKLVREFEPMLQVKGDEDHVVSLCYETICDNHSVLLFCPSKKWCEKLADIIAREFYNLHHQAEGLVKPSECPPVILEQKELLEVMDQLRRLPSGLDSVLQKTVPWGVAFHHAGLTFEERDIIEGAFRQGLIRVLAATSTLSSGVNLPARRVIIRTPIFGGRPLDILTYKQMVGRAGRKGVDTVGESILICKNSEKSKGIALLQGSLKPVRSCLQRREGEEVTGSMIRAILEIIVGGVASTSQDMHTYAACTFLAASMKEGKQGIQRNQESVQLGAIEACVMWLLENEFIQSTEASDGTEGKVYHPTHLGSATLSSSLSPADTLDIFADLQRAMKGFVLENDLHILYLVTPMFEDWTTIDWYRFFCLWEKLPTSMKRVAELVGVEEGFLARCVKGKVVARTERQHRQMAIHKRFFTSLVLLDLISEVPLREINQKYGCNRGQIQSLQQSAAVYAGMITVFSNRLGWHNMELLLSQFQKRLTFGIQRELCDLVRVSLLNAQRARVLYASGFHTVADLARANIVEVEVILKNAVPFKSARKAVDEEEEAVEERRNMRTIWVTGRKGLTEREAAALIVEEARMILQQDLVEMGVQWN
row,IC50,SMILES
1,1000 to 10000 nM,"COc1nnc(NC(=O)c2cnc(C)cc2-c2cccc(CC(N)=O)c2)s1 [Example 472, 4-[3-(carbamoylmethyl)phenyl]-N-(5-methoxy-1,3,4-thiadiazol-2-yl)-6-methylpyridine-3-carboxamide]"
2,1000 to 10000 nM,"COc1nnc(NC(=O)c2cnc(C)cc2-c2cc[nH]c(=O)c2)s1 [Example 364, N-(5-methoxy-1,3,4-thiadiazol-2-yl)-6-methyl-2′-oxo-1′,2′-dihydro-[4,4′-bipyridine]-3-carboxamide]"
3,1000 to 10000 nM,"COc1nnc(NC(=O)c2cnc(C)cc2-c2ccc(C#N)nc2C)s1 [Example 434, 6-cyano-N-(5-methoxy-1,3,4-thiadiazol-2-yl)-2,6′-dimethyl-[3,4′-bipyridine]-3′-carboxamide]"
4,≤ 200 nM,"COc1cnc(Cl)cc1-c1cc(C)ncc1C(=O)Nc1nnc(O[C@@H]2CO[C@H]3OCC[C@H]32)s1 (single isomer, unassigned) [Example 305]"
5,1000 to 10000 nM,"COc1nnc(NC(=O)c2cnc(C)cc2-c2ccc(S(N)(=O)=O)cc2)s1 [Example 378, N-(5-methoxy-1,3,4-thiadiazol-2-yl)-6-methyl-4-(4-sulfamoylphenyl)pyridine-3-carboxamide]"
6,1000 to 10000 nM,"COc1nnc(NC(=O)c2cnc(C)cc2-c2ccccc2)s1 [Example 329, N-(5-methoxy-1,3,4-thiadiazol-2-yl)-6-methyl-4-phenylpyridine-3-carboxamide]"
7,1000 to 10000 nM,"COc1nnc(NC(=O)c2cnc(C)cc2-c2ccc(C(N)=O)cc2)s1 [Example 353, 4-(4-carbamoylphenyl)-N-(5-methoxy-1,3,4-thiadiazol-2-yl)-6-methylpyridine-3-carboxamide]"
8,1000 to 10000 nM,"COc1nnc(NC(=O)c2cnc(C)cc2-c2cnc(N3CCOCC3)nc2)s1 [Example 427, N-(5-methoxy-1,3,4-thiadiazol-2-yl)-6-methyl-4-[2-(morpholin-4-yl)pyrimidin-5-yl]pyridine-3-carboxamide]"
9,1000 to 10000 nM,"COc1nnc(NC(=O)c2cnc(C)cc2-c2ccc(P(C)(C)=O)cc2OC)s1 [Example 303, 4-(4-(dimethylphosphoryl)-2-methoxyphenyl)-N-(5-methoxy-1,3,4-thiadiazol-2-yl)-6-methylnicotinamide]"
10,1000 to 10000 nM,"COc1nnc(NC(=O)c2cnc(C)cc2-c2ccc(OC)c(F)c2)s1 [Example 419, 4-(3-fluoro-4-methoxyphenyl)-N-(5-methoxy-1,3,4-thiadiazol-2-yl)-6-methylpyridine-3-carboxamide]"
11,1000 to 10000 nM,"COc1nnc(NC(=O)c2cnc(C)cc2-c2ccc(N3CCCCC3)cc2)s1 [Example 476, N-(5-methoxy-1,3,4-thiadiazol-2-yl)-6-methyl-4-[4-(piperidin-1-yl)phenyl]pyridine-3-carboxamide]"
12,1000 to 10000 nM,"COc1nnc(NC(=O)c2cnc(C)cc2-c2ccncc2C)s1 [Example 406, N-(5-methoxy-1,3,4-thiadiazol-2-yl)-3′,6-dimethyl-[4,4′-bipyridine]-3-carboxamide]"
13,1000 to 10000 nM,"COc1nnc(NC(=O)c2cnc(C)cc2-c2ccc(S(C)(=O)=O)nc2)s1 [Example 455, N-(5-methoxy-1,3,4-thiadiazol-2-yl)-6′-methyl-6-(methylsulfonyl)-[3,4′-bipyridine]-3′-carboxamide]"
14,200 to 500 nM,"COc1nnc(NC(=O)c2cc(OC(C)C)ncc2-c2cc(Cl)ncc2OC)s1 [Example 273, 2′-chloro-6-isopropoxy-5′-methoxy-N-(5-methoxy-1,3,4-thiadiazol-2-yl)-[3,4′-bipyridine]-4-carboxamide]"

row,SMILES,IC50
1,"COc1cnc(Cl)cc1-c1cc(C)ncc1C(=O)Nc1nnc(O[C@H]2CN3CCC2CC3)s1 [Example 306, (R)-2′-chloro-5′-methoxy-6-methyl-N-(5-(quinuclidin-3-yloxy)-1,3,4-thiadiazol-2-yl)-[4,4′-bipyridine]-3-carboxamide]",1000 to 10000 nM

# Same assay, conditions: Table 4; Pol theta (1-899) 5 nM, ATP, dT50 ssDNA
row,IC50,SMILES
1,≤ 200 nM,"COc1cnc(Cl)cc1-c1cc(C)ncc1C(=O)Nc1nnc(OC2CCCCC2)s1 [Example 12, 2′-chloro-N-(5-(cyclohexyloxy)-1,3,4-thiadiazol-2-yl)-5′-methoxy-6-methyl-(4,4′-bipyridine)-3-carboxamide]"
2,≤ 200 nM,"COc1nnc(NC(=O)c2cnc(C)cc2-c2cc(Cl)ccc2OC(F)F)s1 [Example 33, 4-(5-chloro-2-(difluoromethoxy)phenyl)-N-(5-methoxy-1,3,4-thiadiazol-2-yl)-6-methylnicotinamide]"
3,≤ 200 nM,"COc1cnc(Cl)cc1-c1cc(C)ncc1C(=O)Nc1nnc(O[C@H]2CC[C@@H](O)C2)s1 [Example 46, 2′-chloro-N-(5-(((1s,3r)-3-hydroxycyclopentyl)oxy)-1,3,4-thiadiazol-2-yl)-5′-methoxy-6-methyl-(4,4′-bipyridine)-3-carboxamide]"
4,≤ 200 nM,"COc1cnc(Cl)cc1-c1cc(C)ncc1C(=O)Nc1nnc(OCC2CCOC2C)s1 (centres unmarked) [Example 74, 2′-chloro-5′-methoxy-6-methyl-N-(5-((2-methyltetrahydrofuran-3-yl)methoxy)-1,3,4-thiadiazol-2-yl)-(4,4′-bipyridine)-3-carboxamide]"
5,≤ 200 nM,"COc1nnc(NC(=O)c2cnc(C)cc2-c2cc(C3CC3)ncc2OC)s1 [Example 51, 2′-cyclopropyl-5′-methoxy-N-(5-methoxy-1,3,4-thiadiazol-2-yl)-6-methyl-(4,4′-bipyridine)-3-carboxamide]"
6,500 to 1000 nM,COCCOc1nnc(NC(=O)c2ccncc2-c2ccccc2OC)s1 [Example 78]

# Same assay, conditions: Table 5; Pol theta (1-899) 5 nM, ATP, dT50 ssDNA
row,IC50,SMILES
1,≤ 200 nM,"COc1cnc(Cl)cc1-c1cc(C)ncc1C(=O)Nc1nnc(O[C@H]2CC[C@@H]([C@@H](C)O)CC2)s1 (single isomer, unassigned) [Example 212]"
2,≤ 200 nM,"COc1cnc(C)c(F)c1-c1cc(C)ncc1C(=O)Nc1nnc(O[C@H]2COC3(CC3)C2)s1 (single isomer, unassigned) [Example 208]"

# More lines, now with the values behind:
row,SMILES,IC50
1,"COc1cnc(Cl)cc1-c1cc(C)ncc1C(=O)Nc1nnc(O[C@]2(C)CCOC2)s1 (single isomer, unassigned) [Example 139]",200 to 500 nM
2,"COc1cnc(Cl)cc1-c1cc(C)ncc1C(=O)Nc1nnc(OC2CC3(COC3)C2)s1 [Example 135, N-(5-((2-oxaspiro (3.3)heptan-6-yl)oxy)-1,3,4-thiadiazol-2-yl)-2′-chloro-5′-methoxy-6-methyl-(4,4′-bipyridine)-3-carboxamide]",≤ 200 nM
3,"COc1cnc(C)c(F)c1-c1cc(C)ncc1C(=O)Nc1nnc(O[C@H]2CC[C@H](O)CC2)s1 [Example 202, 3′-fluoro-N-(5-(((1r,4r)-4-hydroxycyclohexyl)oxy)-1,3,4-thiadiazol-2-yl)-5′-methoxy-2′,6-dimethyl-(4,4′-bipyridine)-3-carboxamide]",≤ 200 nM
4,"COc1cnc(Cl)cc1-c1cc(C)ncc1C(=O)Nc1nnc(O[C@H]2C[C@@H](OC)C2)s1 (single isomer, unassigned) [Example 132, 2′-chloro-5′-methoxy-N-(5-((1s,3s)-3-methoxycyclobutoxy)-1,3,4-thiadiazol-2-yl)-6-methyl-(4,4′-bipyridine)-3-carboxamide]",≤ 200 nM
5,"COc1nnc(NC(=O)c2cnc(C)cc2-c2ccc3nscc3c2)s1 [Example 105, 4-(benzo(c)isothiazol-5-yl)-N-(5-methoxy-1,3,4-thiadiazol-2-yl)-6-methylnicotinamide]",1000 to 10000 nM
6,"COc1nnc(NC(=O)c2cnc(C)cc2-c2cccn3nnnc23)s1 [Example 85, N-(5-methoxy-1,3,4-thiadiazol-2-yl)-6-methyl-4-(tetrazolo(1,5-a)pyridin-8-yl)nicotinamide]",1000 to 10000 nM
